From patent US20260092061A1, “COMPOUNDS FOR TARGETED PROTEIN DEGRADATION” (Amphista Therapeutics Limited, priority 2022, published 2026)
Read-outs that look alike come from different tables or passages of the source.

Target: T1, BRD9 (Homo sapiens, UniProt Q9H8M2)
T1 sequence (Q9H8M2 1-597): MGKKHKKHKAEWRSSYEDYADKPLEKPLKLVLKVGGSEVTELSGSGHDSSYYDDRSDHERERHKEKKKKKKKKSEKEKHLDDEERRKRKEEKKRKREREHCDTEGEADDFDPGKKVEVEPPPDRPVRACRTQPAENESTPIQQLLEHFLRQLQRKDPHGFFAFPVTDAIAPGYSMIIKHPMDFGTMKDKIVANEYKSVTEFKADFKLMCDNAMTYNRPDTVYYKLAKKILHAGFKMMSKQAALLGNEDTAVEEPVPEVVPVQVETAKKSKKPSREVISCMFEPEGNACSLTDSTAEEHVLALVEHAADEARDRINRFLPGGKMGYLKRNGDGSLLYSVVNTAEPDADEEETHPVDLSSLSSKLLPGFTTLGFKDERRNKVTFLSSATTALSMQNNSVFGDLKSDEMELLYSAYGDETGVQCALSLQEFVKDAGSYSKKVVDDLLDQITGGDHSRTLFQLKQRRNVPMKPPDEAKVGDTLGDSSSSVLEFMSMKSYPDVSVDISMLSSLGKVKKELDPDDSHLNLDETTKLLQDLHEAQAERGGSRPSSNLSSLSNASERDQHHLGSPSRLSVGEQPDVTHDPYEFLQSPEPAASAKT
Assay: Degradation of BRD9 (IF), immunofluorescence in MV4-11 cells, 24 hours (Assay Protocol 2)
Assay type: cell-based
Set-up: A suspension of MV4-11 cells (ATCC CRL-9591) was prepared; host or cells: MV4-11
Details: BRD9 degradation
Outline: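 MV4-11 cells treated with compound 24 h at 37° C., then fixed, permeabilised and immunostained for BRD9 (anti-BRD9 E4Q3F, Alexa 647 secondary, Hoechst counterstain). High-content imaging quantified nuclear BRD9 signal; % BRD9 remaining normalised to DMSO and 100 nM CFT-8634 controls.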

[1] = Assay protocol 2, read-out: DC50
[2] = MV4-11, Assay protocol 2, read-out: Dmax

Row | DC50 [1] | Dmax [2] | Dmax (MV4-11, Table 4, determined according to Assay Protocol 2, read-out: Dmax^2) | DC50 (Table 4, determined according to Assay Protocol 2, read-out: DC50^2) | SMILES | Dmax (Assay protocol 2)
1 | < 1.25 nM | > 75% | – | – | CCC1c2cccc(CN3CCN(Cc4c(OC)cc(-c5cn(C)c(=O)c(C)c5C)cc4OC)CC34CC4)c2CCN1C(=O)/C(C#N)=C/C(C)(C)C (single isomer, unassigned) [Compound C94, (E/Z)-2-(5-((7-(2,6-dimethoxy-4-(1,4,5-trimethyl-6-oxo-1,6-dihydropyridin-3-yl)benzyl)-4,7-diazaspiro[2.5]octan-4-yl)methyl)-1-ethyl-1,2,3,4-tetrahydroisoquinoline-2-carbonyl)-4,4-dimethylpent-2-enenitrile] | –
2 | 1.25 to 10 nM | 40 to 70% | – | – | COc1cc(-c2cn(C)c(=O)c(C)c2C)cc(OC)c1CN1CCC2(CCN(c3cccc4c3CCN(C(=O)/C(C#N)=C/C(C)(C)C)C4C)C2)C1 (stereo not drawn) [Compound C42, (E2Z)-2-(5-(7-(2,6-dimethoxy-4-(1,4,5-trimethyl-6-oxo-1,6-dihydropyridin-3-yl)benzyl)-2,7-diazaspiro[4.4]nonan-2-yl)-1-methyl-1,2,3,4-tetrahydroisoquinolin-2-carbonyl)-4,4-dimethylpent-2-enenitrile] | –
3 | – | – | 50 to 70% | < 25 nM | COc1cc(-c2cn(C)c(=O)c(C)c2C)cc(OC)c1C(=O)N1CCCN(C(=O)/C(C#N)=C/C(C)(C)C)CC1 [BRD9v, (E/Z)-2-(4-(2,6-dimethoxy-4-(1,4,5-trimethyl-6-oxo-1,6-dihydropyridin-3-yl)benzoyl)-1,4-diazepane-1-carbonyl)-4,4-dimethylpent-2-enenitrile] | –
4 | < 1.25 nM | > 75% | – | – | COc1cc(-c2cn(C)c(=O)c3[nH]ncc23)cc(OC)c1CN1CCN(Cc2cccc3c2CCN(C(=O)/C(C#N)=C/C(C)(C)C)C3C)CC12CC2 (mixture of isomers) [Compound B158, (E/Z)-2-(5-((4-(2,6-dimethoxy-4-(6-methyl-7-oxo-6,7-dihydro-1H-pyrazolo[3,4-c]pyridin-4-yl)benzyl)-4,7-diazaspiro[2.5]octan-7-yl)methyl)-1-methyl-1,2,3,4-tetrahydroisoquinoline-2-carbonyl)-4,4-dimethylpent-2-enenitrile] | –
5 | 25 to 1000 nM | 40 to 70% | – | – | COc1cc(-c2cn(C)c(=O)c(C)c2C)cc(OC)c1CN1CCCN(c2ccc3c(c2)[C@H](C)N(C(=O)/C(C#N)=C/C(C)(C)CF)CC3)CC1 (mixture of isomers) [Compound C68, (E/Z)-2-(7-(4-(2,6-dimethoxy-4-(1,4,5-trimethyl-6-oxo-1,6-dihydropyridin-3-yl)benzyl)-1,4-diazepan-1-yl)-1-methyl-1,2,3,4-tetrahydroisoquinoline-2-carbonyl)-5-fluoro-4,4-dimethylpent-2-enenitrile] | –
6 | 25 to 1000 nM | > 75% | – | – | COc1cc(-c2cn(C)c(=O)c(C)c2C)cc(OC)c1CN1CC(=O)N(Cc2cccc3c2CCN(C(=O)/C(C#N)=C/C(C)(C)C)C3C)C(C)(C)C1 (stereo not drawn) [Compound C55] | –
7 | < 1.25 nM | 40 to 70% | – | – | COc1cc(-c2cn(C)c(=O)c3ccsc23)cc(OC)c1CN1CCC(Oc2cccc3c2CCN(C(=O)/C(C#N)=C/c2cccc(Br)n2)C3C)CC1 (mixture of isomers) [Compound B77] | –
8 | < 1.25 nM | > 75% | – | – | COc1cc(-c2cn(C)c(=O)c(C)c2C)cc(OC)c1CN1CCN(Cc2cccc3c2CCN(C(=O)/C(C#N)=C/C(C)(C)C)C3C(C)C)C2(CC2)C1 (mixture of isomers) [Compound C8, (E/Z)-2-(5-((7-(2,6-dimethoxy-4-(1,4,5-trimethyl-6-oxo-1,6-dihydropyridin-3-yl)benzyl)-4,7-diazaspiro[2.5]octan-4-yl)methyl)-1-isopropyl-1,2,3,4-tetrahydroisoquinoline-2-carbonyl)-4,4-dimethylpent-2-enenitrile] | –
9 | < 1.25 nM | > 75% | – | – | COc1cc(-c2cn(C)c(=O)c(C)c2C)cc(OC)c1CN1CCCN(Cc2cccc3c2CCN(C(=O)/C(C#N)=C/c2cccc(C(F)(F)F)n2)C3C)CC1 (mixture of isomers) [Compound B68, (E/Z)-2-(5-((4-(2,6-dimethoxy-4-(1,4,5-trimethyl-6-oxo-1,6-dihydropyridin-3-yl)benzyl)-1,4-diazepan-1-yl)methyl)-1-methyl-1,2,3,4-tetrahydroisoquinoline-2-carbonyl)-3-(6-(trifluoromethyl)pyridin-2-yl)acrylonitrile] | –
10 | 1.25 to 10 nM | > 75% | – | – | COc1cc(-c2cn(C)c(=O)c(C)c2C)cc(OC)c1CN1CCN(Cc2cccc3c2CCN(C(=O)/C(C#N)=C/C(C)(C)C)C3C(C)C)CC12CC2 (mixture of isomers) [Compound C10, (E/Z)-2-(5-((4-(2,6-dimethoxy-4-(1,4,5-trimethyl-6-oxo-1,6-dihydropyridin-3-yl)benzyl)-4,7-diazspiro[2.5-]octan-7-yl)methyl)-1-isopropyl-1,2,3,4-tetrahydroisoquinoline-2-carbonyl)-4,4-dimethylpent-2-enenitrile] | –
11 | 10 to 25 nM | > 75% | – | – | COc1cc(-c2cn(C)c(=O)c(C)c2C)cc(OC)c1CN1CCN(Cc2cccc3c2CCN(C(=O)/C(C#N)=C\C(C)(C)CF)C3C(C)C)[C@@H](C)C1 (single isomer, unassigned) [Compound C26] | –
12 | 10 to 25 nM | 40 to 70% | – | – | COc1cc(-c2cn(C)c(=O)c(C)c2C)cc(OC)c1CN1CCN(Cc2cccc3c2CCN(C(=O)/C(C#N)=C/C2CCCC2)C3C)CC1 (mixture of isomers) [Compound B90, (E/Z)-3-cyclopentyl-2-(5-((4-(2,6-dimethoxy-4-(1,4,5-trimethyl-6-oxo-1,6-dihydropyridin-3-yl)benzyl)piperazin-1-yl)methyl)-1-methyl-1,2,3,4-tetrahydroisoquinoline-2-carbonyl)acrylonitrile] | –
13 | 1.25 to 10 nM | > 75% | – | – | COc1cc(-c2cn(C)c(=O)c(C)c2C)cc(OC)c1CN1CCCN(Cc2cccc3c2CCN(C(=O)/C(C#N)=C/C(C)(C)C)[C@@H]3C)CC1 (single isomer, unassigned) [Compound B192, (E/Z)-2-(5-((4-(2,6-dimethoxy-4-(1,4,5-trimethyl-6-oxo-1,6-dihydropyridin-3-yl)benzyl)-1,4-diazepan-1-yl)methyl)-1-methyl-1,2,3,4-tetrahydroisoquinoline-2-carbonyl)-4,4-dimethylpent-2-enenitrile] | –
14 | < 1.25 nM | > 75% | – | – | CC[C@@H]1c2cccc(CN3CCN(Cc4c(OC)cc(-c5cn(C)c(=O)c(C)c5C)cc4OC)CC34CC4)c2CCN1C(=O)/C(C#N)=C/C(C)(C)CF (single isomer, unassigned) [Compound C93, (E/Z)-2-(5-((7-(2,6-dimethoxy-4-(1,4,5-trimethyl-6-oxo-1,6-dihydropyridin-3-yl)benzyl)-4,7-diazaspiro[2.5]octan-4-yl)methyl)-1-ethyl-1,2,3,4-tetrahydroisoquinoline-2-carbonyl)-5-fluoro-4,4-dimethylpent-2-enenitrile] | –
15 | 1.25 to 10 nM | > 75% | – | – | COc1cc(-c2cn(C)c(=O)c(C)c2C)cc(OC)c1CN1CCN(Cc2cccc3c2CCN(C(=O)/C(C#N)=C/C(C)(C)C)[C@@H]3C)[C@@H](C)C1 (single isomer, unassigned) [Compound B198] | –
16 | 25 to 1000 nM | 40 to 70% | – | – | COc1cc(-c2cn(C)c(=O)c(C)c2C)cc(OC)c1CN1CC(N(C)Cc2ccc3c(c2)[C@@H](C)N(C(=O)/C(C#N)=C/C(C)(C)C)CC3)C1 (single isomer, unassigned) [Compound C71, (E/Z)-2-(7-(((1-(2,6-dimethoxy-4-(1,4,5-trimethyl-6-oxo-1,6-dihydropyridin-3-yl)benzyl)460zetidine-4-yl)(methyl)amino)methyl)-1-methyl-1,2,3,4-tetrahydroisoquinoline-2-carbonyl)-4,4-dimethylpent-2-enenitrile] | –

Row | SMILES | DC50 [1] | Dmax [2] | Dmax (MV4-11, Table 4, determined according to Assay Protocol 2, read-out: Dmax^2) | DC50 (Table 4, determined according to Assay Protocol 2, read-out: DC50^2) | Dmax (Assay protocol 2)
17 | COc1cc(-c2cn(C)c(=O)c(C)c2C)cc(F)c1CN1CCN(Cc2ccc3c(c2)[C@@H](C)N(C(=O)/C(C#N)=C/C(C)(C)C)CC3)C2(CC2)C1 (single isomer, unassigned) [Compound C5, (E/Z)-2-(7-((7-(2-fluoro-6-mehtoxy-4-(1,4,5-trimethyl-6-oxo-1,6-dihydropyridin-3-yl)benzyl)-4,7-diazaspiro[2.5]octan-4-yl)methyl)-1-methyl-1,2,3,4-tetrahydroisoquinoline-2-carbonyl)-4,4-dimethylpent-2-enenitrile] | 10 to 25 nM | > 75% | – | – | –
18 | COc1cc(-c2cn(C)c(=O)c(C)c2C)cc(OC)c1CN1CCN(Cc2cccc3c2CCN(C(=O)C(C#N)=Cc2cccc(Br)n2)C3C)C(C)(C)C1 (mixture of isomers) [Compound B99, (E/Z)-3-(6-bromopyridin-2-yl)-2-(5-((4-(2,6-dimethoxy-4-(1,4,5-trimethyl-6-oxo-1,6-dihydropyridin-3-yl)benzyl)-2,2-dimethylpiperazin-1-yl)methyl)-1-methyl-1,2,3,4-tetrahydroisoquinoline-2-carbonyl)acrylonitrile] | 25 to 1000 nM | – | – | – | + (+ = >40% and <70%)
